These results are taken from patent US10287255B2, “Compounds as histone deacetylase 6 inhibitors and pharmaceutical compositions comprising the same” (CHONG KUN DANG PHARMACEUTICAL CORP., priority 2014, dated 2019).

The target of assay [1] is T1, human recombinant HDAC6 (Homo sapiens, UniProt Q9UBN7).
T1 construct: purchased Calbiochem 382180
T1 sequence (Q9UBN7 1-1215): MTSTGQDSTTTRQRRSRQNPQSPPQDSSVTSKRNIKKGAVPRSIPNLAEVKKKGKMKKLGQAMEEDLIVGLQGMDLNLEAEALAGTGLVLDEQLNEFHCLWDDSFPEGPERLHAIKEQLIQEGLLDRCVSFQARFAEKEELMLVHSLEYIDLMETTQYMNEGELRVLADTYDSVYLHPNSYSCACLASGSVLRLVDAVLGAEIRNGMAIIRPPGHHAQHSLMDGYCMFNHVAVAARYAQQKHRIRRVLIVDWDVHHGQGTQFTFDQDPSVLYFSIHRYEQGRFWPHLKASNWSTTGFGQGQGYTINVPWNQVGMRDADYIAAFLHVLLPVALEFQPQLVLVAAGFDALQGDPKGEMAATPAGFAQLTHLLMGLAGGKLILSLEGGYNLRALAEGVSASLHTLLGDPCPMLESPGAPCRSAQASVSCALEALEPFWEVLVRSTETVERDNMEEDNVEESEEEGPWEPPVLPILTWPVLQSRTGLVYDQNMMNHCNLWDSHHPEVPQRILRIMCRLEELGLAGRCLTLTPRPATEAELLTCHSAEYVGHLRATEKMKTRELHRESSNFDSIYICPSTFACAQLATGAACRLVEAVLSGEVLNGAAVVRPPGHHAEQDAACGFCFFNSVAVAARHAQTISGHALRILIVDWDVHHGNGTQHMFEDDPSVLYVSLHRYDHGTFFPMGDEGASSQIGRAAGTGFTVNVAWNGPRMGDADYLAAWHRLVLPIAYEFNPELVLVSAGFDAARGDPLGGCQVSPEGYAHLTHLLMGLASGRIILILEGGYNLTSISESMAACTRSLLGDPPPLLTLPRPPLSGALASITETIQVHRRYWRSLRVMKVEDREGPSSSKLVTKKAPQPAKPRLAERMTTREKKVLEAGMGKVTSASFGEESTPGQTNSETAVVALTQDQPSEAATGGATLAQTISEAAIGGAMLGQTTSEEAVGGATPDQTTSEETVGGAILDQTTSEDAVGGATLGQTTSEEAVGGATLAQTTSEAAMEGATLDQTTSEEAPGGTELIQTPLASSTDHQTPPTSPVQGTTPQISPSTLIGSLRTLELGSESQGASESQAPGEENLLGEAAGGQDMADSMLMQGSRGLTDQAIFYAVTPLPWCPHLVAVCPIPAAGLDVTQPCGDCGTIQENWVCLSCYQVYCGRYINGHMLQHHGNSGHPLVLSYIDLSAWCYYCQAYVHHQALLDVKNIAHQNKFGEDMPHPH
Briefly: HDAC6 enzyme activity inhibition assay (in vitro, fluorimetric). The assay is classed as biochemical. Particulars: for HDAC6 selectivity (fold): HDAC6 selectivity over HDAC1; for IC50: human recombinant HDAC6, fluorimetric kit, same protocol as HDAC1. In outline:
(§1)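 Human recombinant enzyme (0.3 μg for HDAC1) reacted with 10 μM Fluor de Lys-SIRT1 substrate and 5-fold compound dilutions at 30 °C for 60 min, then developer for 30 min. Fluorescence read at Ex 360/Em 460; IC50 calculated. HDAC6 run by the same protocol.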

Assay [2] addresses T2, human recombinant HDAC1 (Homo sapiens, UniProt Q13547).
T2 construct: purchased Enzo Life Science BML-SE456
Briefly: HDAC1 enzyme activity inhibition assay (in vitro, fluorimetric). The conditions noted are these: human recombinant HDAC1, fluorimetric kit, 30° C. 60 minutes. The assay is classed as biochemical. In outline:
as §1

What is called IC50 is the concentration that inhibits the measured activity by half.

T2 sequence (Q13547 whole entry): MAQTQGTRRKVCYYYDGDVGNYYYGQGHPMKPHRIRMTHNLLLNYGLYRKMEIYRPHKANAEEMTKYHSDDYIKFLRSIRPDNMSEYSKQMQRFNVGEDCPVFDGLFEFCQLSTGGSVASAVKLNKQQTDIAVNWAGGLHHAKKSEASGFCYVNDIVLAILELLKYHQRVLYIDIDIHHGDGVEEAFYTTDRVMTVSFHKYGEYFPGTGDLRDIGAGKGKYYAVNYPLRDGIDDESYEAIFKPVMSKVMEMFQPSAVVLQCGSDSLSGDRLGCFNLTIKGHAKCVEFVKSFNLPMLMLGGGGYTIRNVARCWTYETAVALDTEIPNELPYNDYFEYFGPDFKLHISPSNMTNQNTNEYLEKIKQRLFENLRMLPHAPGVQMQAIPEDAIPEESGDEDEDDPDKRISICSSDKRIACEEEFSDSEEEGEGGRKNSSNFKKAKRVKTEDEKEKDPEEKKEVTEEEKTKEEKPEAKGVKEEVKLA

As for `C[C@@H]1CN(Cc2ccc(C(=O)NO)cc2)C[C@H](C)N1C(=O)c1cccc(-c2cccnc2)c1` [Compound 246, 4-(((3R,5S)-3,5-dimethyl-4-(3-(pyridin-3-yl)benzoyl)piperazin-1-yl)methyl)-N-hydroxybenzamide], in assay [1], the “HDAC6 selectivity (fold)” value stood at 26 fold and the IC50 stood at 0.129 µM. The IC50 in assay [2] is 3.4 µM.

Turning to `C[C@@H]1CN(Cc2ccc(C(=O)NO)cc2)C[C@H](C)N1Cc1cccc(CN2CCN(C)CC2)c1` [Compound 428, 4-(((3R,5S)-3,5-dimethyl-4-(3-((4-methylpiperazin-1-yl)methyl)benzyl)piperazin-1-yl)methyl)-N-hydroxybenzamide], in assay [1], the “HDAC6 selectivity (fold)” value was found to be 41 fold and the IC50 was found to be 0.117 µM. Moreover, in assay [2], the IC50 came to 4.7 µM.

For `C[C@@H]1CN(C(=O)c2cccc(-c3ccnc(F)c3)c2)C[C@H](C)N1Cc1ccc(C(=O)NO)cc1` [Compound 262, 4-(((2S,6R)-4-(3-(2-fluoropyridin-4-yl)benzoyl)-2,6-dimethylpiperazin-1-yl)methyl)-N-hydroxybenzamide], the “HDAC6 selectivity (fold)” value in assay [1] is given as 3 fold. The figures for the IC50 in assay [1] and in assay [2] were 0.727 µM and 2.4 µM, respectively.

For the molecule `C[C@@H]1CN(Cc2ccc(C(=O)NO)cc2)C[C@H](C)N1Cc1ccccc1Cl` [Compound 127, 4-(((3R,5S)-4-(2-chlorobenzyl)-3,5-dimethylpiperazin-1-yl)methyl)-N-hydroxybenzamide], the “HDAC6 selectivity (fold)” value in assay [1] is listed as more than 909 fold. The IC50 in assay [1] is 0.011 µM; in assay [2], more than 10 µM.

Regarding `CCCCN(C(=O)N1C[C@@H](C)N(Cc2ccc(C(=O)NO)cc2)[C@@H](C)C1)c1ccccc1` [Compound 198, (3R,5S)-N-butyl-4-(4-(hydroxycarbamoyl)benzyl)-3,5-dimethyl-N-phenylpiperazine-1-carboxamide], in assay [1], the “HDAC6 selectivity (fold)” value is 51 fold and the IC50 worked out at 0.241 µM. In assay [2], the IC50 worked out at 12.2 µM.

For `CC(=O)N1CC=C(c2ccccc2CN2[C@H](C)CN(Cc3ccc(C(=O)NO)cc3)C[C@@H]2C)CC1` [Compound 482, 4-(((3R,5S)-4-(2-(1-acetyl-1,2,3,6-tetrahydropyridin-4-yl)benzyl)-3,5-dimethylpiperazin-1-yl)methyl)-N-hydroxybenzamide], the “HDAC6 selectivity (fold)” value in assay [1] was 121 fold. Further, the 50% inhibitory concentration (IC50) was 0.103 µM in assay [1] and 12.5 µM in assay [2].

As to `C[C@@H]1CN(C(=O)c2ccco2)C[C@H](C)N1Cc1ccc(C(=O)NO)cc1` [Compound 115, 4-(((2S,6R)-4-(furan-2-carbonyl)-2,6-dimethylpiperazin-1-yl)methyl)-N-hydroxybenzamide], in assay [1], the “HDAC6 selectivity (fold)” value was found to be 18 fold and the 50% inhibitory concentration (IC50) is 0.181 µM. In assay [2], the IC50 was 3.2 µM.

For the molecule `C[C@@H]1CN(Cc2ccccc2)C[C@H](C)N1Cc1ccc(/C=C/C(=O)NO)cc1` [Compound 175, (E)-3-(4-(((2S,6R)-4-benzyl-2,6-dimethylpiperazin-1-yl)methyl)phenyl)-N-hydroxyacrylamide], in assay [1], the “HDAC6 selectivity (fold)” value is recorded as 90 fold and the IC50 came to 0.068 µM. In assay [2], the half-maximal inhibitory concentration (IC50) came to 6.1 µM.

With `CCCCN1C[C@@H](C)N(Cc2ccc(C(=O)NO)cc2)[C@@H](C)C1` [Compound 274, 4-(((2S,6R)-4-butyl-2,6-dimethylpiperazin-1-yl)methyl)-N-hydroxybenzamide], in assay [1], the “HDAC6 selectivity (fold)” value is reported as 36 fold and the IC50 is 0.378 µM. In assay [2], the IC50 is 13.5 µM.

On to `C[C@@H]1CN(Cc2ccc(C(=O)NO)cc2)C[C@H](C)N1Cc1cccc(CN2CCCC2)c1` [Compound 427, 4-(((3R,5S)-3,5-dimethyl-4-(3-(pyrrolidin-1-ylmethyl)benzyl)piperazin-1-yl)methyl)-N-hydroxybenzamide], for which, in assay [1], the “HDAC6 selectivity (fold)” value amounted to 40 fold and the IC50 turned out to be 0.152 µM. In assay [2], the IC50 amounted to 6 µM.

As for `C[C@@H]1CN(Cc2ccc(C(=O)NO)cc2)C[C@H](C)N1Cc1cocn1` [Compound 354, 4-(((3R,5S)-3,5-dimethyl-4-(oxazol-4-ylmethyl)piperazin-1-yl)methyl)-N-hydroxybenzamide], in assay [1], the “HDAC6 selectivity (fold)” value is reported as more than 2000 fold and the IC50 came out at 0.005 µM. Moreover, the IC50 in assay [2] was more than 10 µM.

On to `C[C@@H]1CN(C(=O)N2CCc3ccccc32)C[C@H](C)N1Cc1ccc(C(=O)NO)cc1` [Compound 197, N-hydroxy-4-(((2S,6R)-4-(indoline-1-carbonyl)-2,6-dimethylpiperazin-1-yl)methyl)benzamide], for which the “HDAC6 selectivity (fold)” value in assay [1] worked out at 12 fold. The figures for the IC50 in assay [1] and in assay [2] were 0.177 µM and 2.1 µM, respectively.

For the molecule `C[C@@H]1CN(Cc2ccc(C(=O)NO)cc2)C[C@H](C)N1C(=O)c1ccccc1Cl` [Compound 120, 4-(((3R,5S)-4-(2-chlorobenzoyl)-3,5-dimethylpiperazin-1-yl)methyl)-N-hydroxybenzamide], in assay [1], the “HDAC6 selectivity (fold)” value is listed as 304 fold and the IC50 is 0.018 µM. For the same molecule, the IC50 in assay [2] stood at 5.5 µM.

As for `C[C@@H]1CN(Cc2ccccc2)C[C@H](C)N1Cc1ccc(C(=O)NO)cn1` [Compound 195, 6-(((2S,6R)-4-benzyl-2,6-dimethylpiperazin-1-yl)methyl)-N-hydroxynicotinamide], in assay [1], the “HDAC6 selectivity (fold)” value came out at 55 fold and the IC50 was 0.41 µM. Also, in assay [2], the IC50 stood at 22.4 µM.

Consider `C[C@@H]1CN(Cc2ccc(C(=O)NO)cc2)C[C@H](C)N1Cc1cccc(CN2CCN(Cc3ccccc3)CC2)c1` [Compound 385, 4-(((3R,5S)-4-(3-((4-benzylpiperazin-1-yl)methyl)benzyl)-3,5-dimethylpiperazin-1-yl)methyl)-N-hydroxybenzamide], for which, in assay [1], the “HDAC6 selectivity (fold)” value is reported as more than 53 fold and the IC50 came to 0.189 µM. In assay [2], the IC50 was more than 10 µM.

On to `C[C@@H]1CN(Cc2ccc(C(=O)NO)cc2)C[C@H](C)N1Cc1ccccc1-c1ccncc1` [Compound 329, 4-(((3R,5S)-3,5-dimethyl-4-(2-(pyridin-4-yl)benzyl)piperazin-1-yl)methyl)-N-hydroxybenzamide], for which, in assay [1], the “HDAC6 selectivity (fold)” value is listed as 280 fold and the IC50 stood at 0.052 µM. In assay [2], the half-inhibitory concentration (IC50) amounted to 14.6 µM.

For `C[C@@H]1CN(Cc2ccc(C(=O)NO)cc2)C[C@H](C)N1C(=O)c1ccncc1` [Compound 405, N-hydroxy-4-(((3R,5S)-4-isonicotinoyl-3,5-dimethylpiperazin-1-yl)methyl)benzamide], in assay [1], the “HDAC6 selectivity (fold)” value was 17 fold and the IC50 is 0.248 µM. For the same molecule, in assay [2], the IC50 worked out at 4.3 µM.

`C[C@@H]1CN(Cc2ccc(C(=O)NO)cc2)C[C@H](C)N1Cc1ccccc1F` [Compound 211, 4-(((3R,5S)-4-(2-fluorobenzyl)-3,5-dimethylpiperazin-1-yl)methyl)-N-hydroxybenzamide]: the “HDAC6 selectivity (fold)” value in assay [1] is more than 154 fold. The IC50 in assay [1] is 0.065 µM; in assay [2] it was more than 10 µM.

Consider `C[C@@H]1CN(Cc2ccc(C(=O)NO)cc2)C[C@H](C)N1Cc1ccccc1C1=CCN(S(C)(=O)=O)CC1` [Compound 481, 4-(((3R,5S)-3,5-dimethyl-4-(2-(1-(methylsulfonyl)-1,2,3,6-tetrahydropyridin-4-yl)benzyl)piperazin-1-yl)methyl)-N-hydroxybenzamide], for which, in assay [1], the “HDAC6 selectivity (fold)” value is given as 153 fold and the IC50 stood at 0.106 µM. Besides, the IC50 in assay [2] turned out to be 16.2 µM.

On to `C[C@@H]1CN(C(=O)c2ccccc2C2=CCC(C)(C)CC2)C[C@H](C)N1Cc1ccc(C(=O)NO)cc1` [Compound 280, 4-(((2S,6R)-4-(4′,4′-dimethyl-2′,3′,4′,5′-tetrahydro-[1,1′-biphenyl]-2-carbonyl)-2,6-dimethylpiperazin-1-yl)methyl)-N-hydroxybenzamide], for which, in assay [1], the “HDAC6 selectivity (fold)” value was found to be 46 fold. For the same molecule, the values for the IC50 in assay [1] and in assay [2] were 0.388 µM and 17.7 µM, respectively.
